Measurements from paper PMC9944328 (Nature Communications, 2023).
Like-named read-outs stand apart in the source and are kept apart here.

Test system: SSTR2 mutants
Experiment: SSTRs Gi-mediated cAMP inhibition, GloSensor, HEK293, 5 μM forskolin, 15 min room temperature (SSTR2 mutants)
Type: cell-based, human
Design: Best-fit Bottom, cAMP inhibition / Best-fit Top, cAMP inhibition / Span, cAMP inhibition / Bottom (best-fit value) / Top (best-fit value) / Span (best-fit value) / Span (best-fit) / Bottom (best-fit) / Top (best-fit) / Best-fit Bottom / Best-fit Top / Best-fit Span / Top / Span: scale not given here
Protocol: The levels of the intracellular 3′, 5′-cyclic AMP (cAMP) were measured by the GloSensor cAMP assay (Promega) as described in the previous studies[28],[41] which has been widely used. The human full-length SSTRs and mutants were cloned into the pcDNA3.1+ vector with a HA signal sequence followed by a Flag tag at the N-terminus. HEK293 cells (ATCC, CRL-1573) were seeded into 6-well microplates at a density of 1.0 × 10^6 cells/well and cultured for 24 h at 37 °C with 5% CO2. Cells were then co-transfected with SSTR wild-type or mutants and GloSensor plasmids. After 24 h of transfection, the cells were dissociated with TrypLE™ Express Enzyme (1X) (Thermo Fisher Scientific) and collected by centrifugation at 500 × g for 5 min. Then the collected cells were suspended in Hank’s balanced salt solution [HBSS (Thermo Fisher Scientific)] supplemented with […] (YEASEN), and then the suspension cells were seeded into 96-well plates with 90 μl/well. After incubating at room temperature for 40 min, 5 μM forskolin and ligands diluted in HBSS were added to each well and the plates were incubated at room temperature for 15 min. […] were measured using the Synergy H1 microplate reader (BioTek) and the data presented are means of at least three independent experiments.

## C[C@@H](O)[C@@H]1NC(=O)[C@H](CCCCN)NC(=O)[C@@H](Cc2c[nH]c3ccccc23)NC(=O)[C@H](Cc2ccccc2)NC(=O)[C@@H](NC(=O)[C@H](N)Cc2ccccc2)CSSC[C@@H](C(=O)N[C@H](CO)[C@@H](C)O)NC1=O [octreotide]
SSTR2 I195A-1, run 1
  Best-fit Top, cAMP inhibition: 99.51
  LogEC50, cAMP inhibition: -8.167
  Span, cAMP inhibition: 98.37
SSTR2 I195A-1, run 1, read-out: EC50, cAMP inhibition
  EC50: 6.8 nM
SSTR2 I195A-2, run 2
  Best-fit Bottom, cAMP inhibition: -0.2331
  Best-fit Top, cAMP inhibition: 94.69
  LogEC50, cAMP inhibition: -8.189
  Span, cAMP inhibition: 94.92
SSTR2 I195A-2, run 2, read-out: EC50, cAMP inhibition
  EC50: 6.47 nM
SSTR2 I195A-3, run 3
  Best-fit Bottom, cAMP inhibition: 2.536
  Best-fit Top, cAMP inhibition: 107
  LogEC50, cAMP inhibition: -8.29
  Span, cAMP inhibition: 104.4
SSTR2 I195A-3, run 3, read-out: EC50, cAMP inhibition
  EC50: 5.13 nM
SSTR2 L99A-1, run 1
  Best-fit Bottom, cAMP inhibition: -0.05878
  Best-fit Top, cAMP inhibition: 83.27
  LogEC50, cAMP inhibition: -8.764
  Span, cAMP inhibition: 83.33
SSTR2 L99A-1, run 1, read-out: EC50, cAMP inhibition
  EC50: 1.72 nM
SSTR2 L99A-2, run 2
  Best-fit Bottom, cAMP inhibition: 3.887
  Best-fit Top, cAMP inhibition: 89.82
  LogEC50, cAMP inhibition: -8.724
  Span, cAMP inhibition: 85.94
SSTR2 L99A-2, run 2, read-out: EC50, cAMP inhibition
  EC50: 1.89 nM
SSTR2 L99A-3, run 3
  Best-fit Bottom, cAMP inhibition: 6.223
  Best-fit Top, cAMP inhibition: 104
  LogEC50, cAMP inhibition: -9.836
  Span, cAMP inhibition: 97.82
SSTR2 L99A-3, run 3, read-out: EC50, cAMP inhibition
  EC50: 0.146 nM
SSTR2 Q102A-1, run 1
  Best-fit Bottom, cAMP inhibition: 2.423
  Best-fit Top, cAMP inhibition: 108.7
  LogEC50, cAMP inhibition: -7.926
  Span, cAMP inhibition: 106.2
SSTR2 Q102A-1, run 1, read-out: EC50, cAMP inhibition
  EC50: 11.9 nM
SSTR2 Q102A-2, run 2
  Best-fit Bottom, cAMP inhibition: 0.4721
  Best-fit Top, cAMP inhibition: 108.9
  LogEC50, cAMP inhibition: -7.92
  Span, cAMP inhibition: 108.4
SSTR2 Q102A-2, run 2, read-out: EC50, cAMP inhibition
  EC50: 12 nM
SSTR2 Q102A-3, run 3
  Best-fit Bottom, cAMP inhibition: 3.028
  Best-fit Top, cAMP inhibition: 105.6
  LogEC50, cAMP inhibition: -7.863
  Span, cAMP inhibition: 102.6
SSTR2 Q102A-3, run 3, read-out: EC50, cAMP inhibition
  EC50: 13.7 nM
SSTR2 T194A-1, run 1
  Best-fit Top, cAMP inhibition: 84.79
  LogEC50, cAMP inhibition: -7.026
  Span, cAMP inhibition: 77.01
SSTR2 T194A-1, run 1, read-out: EC50, cAMP inhibition
  EC50: 94.2 nM
SSTR2 T194A-2, run 2
  Best-fit Top, cAMP inhibition: 94.26
  LogEC50, cAMP inhibition: -7.558
  Span, cAMP inhibition: 87.81
SSTR2 T194A-2, run 2, read-out: EC50, cAMP inhibition
  EC50: 27.7 nM
SSTR2 T194A-3, run 3
  Best-fit Top, cAMP inhibition: 95.49
  LogEC50, cAMP inhibition: -7.626
  Span, cAMP inhibition: 91.25
SSTR2 T194A-3, run 3, read-out: EC50, cAMP inhibition
  EC50: 23.7 nM
SSTR2 V103A-1, run 1
  Best-fit Bottom, cAMP inhibition: 3.112
  Best-fit Top, cAMP inhibition: 97.5
  LogEC50, cAMP inhibition: -8.546
  Span, cAMP inhibition: 94.39
SSTR2 V103A-1, run 1, read-out: EC50, cAMP inhibition
  EC50: 2.85 nM
SSTR2 V103A-2, run 2
  Best-fit Bottom, cAMP inhibition: -14.84
  Best-fit Top, cAMP inhibition: 85.83
  LogEC50, cAMP inhibition: -8.054
  Span, cAMP inhibition: 100.7
SSTR2 V103A-2, run 2, read-out: EC50, cAMP inhibition
  EC50: 8.84 nM
SSTR2 V103A-3, run 3
  Best-fit Bottom, cAMP inhibition: -3.777
  Best-fit Top, cAMP inhibition: 89.06
  LogEC50, cAMP inhibition: -7.947
  Span, cAMP inhibition: 92.84
SSTR2 V103A-3, run 3, read-out: EC50, cAMP inhibition
  EC50: 11.3 nM
SSTR2 Y50A-1, run 1
  Best-fit Bottom, cAMP inhibition: 9.945
  Best-fit Top, cAMP inhibition: 106.2
  LogEC50, cAMP inhibition: -9.897
  Span, cAMP inhibition: 96.25
SSTR2 Y50A-2, run 2
  Best-fit Bottom, cAMP inhibition: -3.529
  Best-fit Top, cAMP inhibition: 103.6
  LogEC50, cAMP inhibition: -10.54
  Span, cAMP inhibition: 107.2
SSTR2 Y50A-2, run 2, read-out: EC50, cAMP inhibition
  EC50: 0.0288 nM
SSTR2 Y50A-3, run 3
  Best-fit Bottom, cAMP inhibition: 9.945
  Best-fit Top, cAMP inhibition: 106.2
  LogEC50, cAMP inhibition: -9.897
  Span, cAMP inhibition: 96.25
SSTR2 Y50A-3, run 3, read-out: EC50, cAMP inhibition
  EC50: 0.127 nM
Suppl. Tables 4/5, SSTR2 T194(45.51)H, n=3
  Emax: 88.27±7.62 %WT SSTR2
Suppl. Tables 4/5, SSTR2 V103(2.64)N, n=3
  Emax: 94.00±3.65 %WT SSTR2
Suppl. Tables 4/5, SSTR2 V103(2.64)N, n=3, read-out: EC50
  EC50: 0.23 nM
T194(45.51)H in SSTR2
  Receptor activation of mutant: significantly reduced receptor activation
T194A-1, run 1
  Bottom (best-fit value): 7.78
T194A-2, run 2
  Bottom (best-fit value): 6.447
T194A-3, run 3
  Bottom (best-fit value): 4.244
T287A-1, run 1
  Bottom (best-fit value): 2.841
  LogEC50 (best-fit value): -9.206
  Span (best-fit value): 86.99
  Top (best-fit value): 89.83
T287A-1, run 1, read-out: EC50 (best-fit value)
  EC50: 0.623 nM
T287A-2, run 2
  Bottom (best-fit value): -10.83
  LogEC50 (best-fit value): -9.285
  Span (best-fit value): 118.8
  Top (best-fit value): 108
T287A-2, run 2, read-out: EC50 (best-fit value)
  EC50: 0.519 nM
T287A-3, run 3
  Bottom (best-fit value): 2.734
  LogEC50 (best-fit value): -9.182
  Span (best-fit value): 94.95
  Top (best-fit value): 97.68
T287A-3, run 3, read-out: EC50 (best-fit value)
  EC50: 0.658 nM
V103(2.64)N mutant of SSTR2
  EC50 of mutant versus wild-type: retained a similar EC50 as wild-type receptor
W188A-1, run 1
  Bottom (best-fit value): -1.717
  LogEC50 (best-fit value): -9.896
  Span (best-fit value): 106.4
  Top (best-fit value): 104.7
W188A-1, run 1, read-out: EC50 (best-fit value)
  EC50: 0.127 nM
W188A-2, run 2
  Bottom (best-fit value): 1.331
  LogEC50 (best-fit value): -10.14
  Span (best-fit value): 108.6
